In ChEMBL document CHEMBL1201862, “PubChem BioAssay data set” (2004):
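These data come from cells grown in 96-well plates and exposed to compound for 48 hours at five concentrations. GI50 = concentration required for 50% inhibition of growth.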 Activity calls are given as the source filed them. Rule as the data show it: active = GI50 up to about 1.1 µM and inactive = higher.

Experiments:
Assay in all cases: NCI anticancer screen, dose series, 48 h
[1] = tested on: 786-0
[2] = tested on: CCRF-CEM
[3] = tested on: COLO 205
[4] = tested on: DU-145
[5] = tested on: EKVX
[6] = tested on: HCT-116
[7] = tested on: HL-60
[8] = tested on: HOP-92
[9] = tested on: IGROV-1
[10] = tested on: K562
[11] = tested on: KM12
[12] = tested on: M14
[13] = tested on: MCF7
[14] = tested on: MDA-MB-231
[15] = tested on: MOLT-4
[16] = tested on: NCI-H23
[17] = tested on: NCI-H460
[18] = tested on: NCI/ADR-RES
[19] = tested on: OVCAR-3
[20] = tested on: OVCAR-8
[21] = tested on: PC-3
[22] = tested on: RXF 393
[23] = tested on: SK-MEL-2
[24] = tested on: SK-MEL-5
[25] = tested on: SK-OV-3
[26] = tested on: SNB-19
[27] = tested on: T47D
[28] = tested on: U-251
[29] = tested on: UACC-257
[30] = tested on: UACC-62
[31] = tested on: A549
[32] = tested on: CAKI-1
[33] = tested on: HCC 2998
[34] = tested on: HCT-15
[35] = tested on: HOP-62
[36] = tested on: HT-29
[37] = tested on: LOX IMVI
[38] = tested on: MDA-N
[39] = tested on: Malme-3M
[40] = tested on: RPMI-8226
[41] = tested on: SF-268
[42] = tested on: SF-295
[43] = tested on: SK-MEL-28
[44] = tested on: SN12C
[45] = tested on: SNB-75
[46] = tested on: SR
[47] = tested on: SW-620
[48] = tested on: TK-10
[49] = tested on: A498
[50] = tested on: ACHN
[51] = tested on: Hs-578T
[52] = tested on: MDA-MB-435
[53] = tested on: NCI-H226
[54] = tested on: NCI-H522
[55] = tested on: OVCAR-4
[56] = tested on: OVCAR-5
[57] = tested on: SF-539
[58] = tested on: UO-31

## CCC(CCCC[C@@H]1CC[C@H]2CC(=O)C[C@@H]12)OC (stereo partly drawn)
[1]
  GI50: > 100 µM (inactive)
[2]
  GI50: > 100 µM (inactive)
[3]
  GI50: > 100 µM (inactive)
[4]
  GI50: > 100 µM (inactive)
[5]
  GI50: > 100 µM (inactive)
[6]
  GI50: > 100 µM (inactive)
[7]
  GI50: 49.5 µM (inactive)
[8]
  GI50: > 100 µM (inactive)
[9]
  GI50: > 100 µM (inactive)
[10]
  GI50: 36.7 µM (inactive)
[11]
  GI50: > 100 µM (inactive)
[12]
  GI50: > 100 µM (inactive)
[13]
  GI50: > 100 µM (inactive)
[14]
  GI50: > 100 µM (inactive)
[15]
  GI50: > 100 µM (inactive)
[16]
  GI50: 91.6 µM (inactive)
[17]
  GI50: > 100 µM (inactive)
[18]
  GI50: 76.6 µM (inactive)
[19]
  GI50: > 100 µM (inactive)
[20]
  GI50: > 100 µM (inactive)
[21]
  GI50: > 100 µM (inactive)
[22]
  GI50: > 100 µM (inactive)
[23]
  GI50: > 100 µM (inactive)
[24]
  GI50: 73.5 µM (inactive)
[25]
  GI50: > 100 µM (inactive)
[26]
  GI50: > 100 µM (inactive)
[27]
  GI50: > 100 µM (inactive)
[28]
  GI50: > 100 µM (inactive)
[29]
  GI50: 56.6 µM (inactive)
[30]
  GI50: > 100 µM (inactive)

## CC(C)(Oc1ccc2c(=O)cc(-c3ccccc3)oc2c1)C(=O)N1CCN(c2ccccc2)CC1
[1]
  GI50: 5.89 µM (inactive)
[31]
  GI50: 4.95 µM (inactive)
[32]
  GI50: 3.7 µM (inactive)
[2]
  GI50: 3.15 µM (inactive)
[4]
  GI50: 6.12 µM (inactive)
[5]
  GI50: 5.28 µM (inactive)
[33]
  GI50: 5.94 µM (inactive)
[34]
  GI50: 4.55 µM
[7]
  GI50: 1.62 µM (inactive)
[35]
  GI50: 5.55 µM (inactive)
[36]
  GI50: 4.08 µM (inactive)
[9]
  GI50: > 10 µM (inactive)
[10]
  GI50: 3.17 µM (inactive)
[11]
  GI50: 3.42 µM (inactive)
[37]
  GI50: 5.5 µM (inactive)
[12]
  GI50: 3.64 µM (inactive)
[13]
  GI50: 3.23 µM (inactive)
[14]
  GI50: 6.46 µM (inactive)
[38]
  GI50: 3.41 µM (inactive)
[15]
  GI50: 2.6 µM (inactive)
[39]
  GI50: 4.84 µM (inactive)
[16]
  GI50: 3.24 µM (inactive)
[20]
  GI50: 5.57 µM (inactive)
[21]
  GI50: 3.05 µM (inactive)
[40]
  GI50: 2.52 µM (inactive)
[22]
  GI50: 1.47 µM (inactive)
[41]
  GI50: 4.16 µM (inactive)
[42]
  GI50: 4.71 µM (inactive)
[43]
  GI50: 6.81 µM (inactive)
[24]
  GI50: 4.54 µM (inactive)
[25]
  GI50: > 10 µM (inactive)
[44]
  GI50: 5.74 µM (inactive)
[45]
  GI50: 4.76 µM (inactive)
[46]
  GI50: 2.49 µM (inactive)
[47]
  GI50: 6.64 µM (inactive)
[27]
  GI50: 3.2 µM (inactive)
[48]
  GI50: 8.17 µM (inactive)
[29]
  GI50: 3.56 µM (inactive)
[30]
  GI50: 3.71 µM (inactive)

## Clc1ccc(-c2nn3c(C45CC6CC(CC(C6)C4)C5)nnc3s2)cc1
[1]
  GI50: 35.7 µM (inactive)
[49]
  GI50: 50.2 µM (inactive)
[31]
  GI50: > 100 µM (inactive)
[50]
  GI50: 69.5 µM (inactive)
[32]
  GI50: > 100 µM (inactive)
[2]
  GI50: > 100 µM (inactive)
[3]
  GI50: > 100 µM (inactive)
[4]
  GI50: > 100 µM (inactive)
[5]
  GI50: > 100 µM (inactive)
[33]
  GI50: > 100 µM (inactive)
[6]
  GI50: 63.1 µM (inactive)
[34]
  GI50: > 100 µM
[7]
  GI50: > 100 µM (inactive)
[35]
  GI50: > 100 µM (inactive)
[8]
  GI50: > 100 µM (inactive)
[36]
  GI50: > 100 µM (inactive)
[51]
  GI50: > 100 µM (inactive)
[9]
  GI50: > 100 µM (inactive)
[10]
  GI50: > 100 µM (inactive)
[11]
  GI50: > 100 µM (inactive)
[37]
  GI50: > 100 µM (inactive)
[12]
  GI50: > 100 µM (inactive)
[14]
  GI50: 55.6 µM (inactive)
[52]
  GI50: > 100 µM (inactive)
[15]
  GI50: > 100 µM (inactive)
[39]
  GI50: > 100 µM (inactive)
[53]
  GI50: > 100 µM (inactive)
[16]
  GI50: > 100 µM (inactive)
[17]
  GI50: > 100 µM (inactive)
[54]
  GI50: > 100 µM (inactive)
[18]
  GI50: > 100 µM (inactive)
[19]
  GI50: 39.1 µM (inactive)
[55]
  GI50: 34.4 µM (inactive)
[56]
  GI50: > 100 µM (inactive)
[21]
  GI50: > 100 µM (inactive)
[40]
  GI50: > 100 µM (inactive)
[22]
  GI50: > 100 µM (inactive)
[41]
  GI50: > 100 µM (inactive)
[42]
  GI50: > 100 µM (inactive)
[57]
  GI50: > 100 µM (inactive)
[43]
  GI50: > 100 µM (inactive)
[23]
  GI50: > 100 µM (inactive)
[24]
  GI50: > 100 µM (inactive)
[25]
  GI50: > 100 µM (inactive)
[44]
  GI50: > 100 µM (inactive)
[26]
  GI50: > 100 µM (inactive)
[45]
  GI50: > 100 µM (inactive)
[46]
  GI50: > 100 µM (inactive)
[47]
  GI50: > 100 µM (inactive)
[27]
  GI50: > 100 µM (inactive)
[48]
  GI50: > 100 µM (inactive)
[28]
  GI50: > 100 µM (inactive)
[30]
  GI50: > 100 µM (inactive)
[58]
  GI50: > 100 µM (inactive)
